Reference: patent US9579314B2 (priority 2015, dated 2017)
Where a name gives a salt, the structure may show the parent alone.

Legend:
Human M3 receptor = Human M3 receptor (Homo sapiens, UniProt P20309); conditions: read-out: M3 binding affinity
Human β2 adrenoceptor = Human β2 adrenoceptor (Homo sapiens, UniProt P07550); conditions: read-out: B2 binding affinity
Human β2 adrenoceptor, sequence (P07550 whole entry): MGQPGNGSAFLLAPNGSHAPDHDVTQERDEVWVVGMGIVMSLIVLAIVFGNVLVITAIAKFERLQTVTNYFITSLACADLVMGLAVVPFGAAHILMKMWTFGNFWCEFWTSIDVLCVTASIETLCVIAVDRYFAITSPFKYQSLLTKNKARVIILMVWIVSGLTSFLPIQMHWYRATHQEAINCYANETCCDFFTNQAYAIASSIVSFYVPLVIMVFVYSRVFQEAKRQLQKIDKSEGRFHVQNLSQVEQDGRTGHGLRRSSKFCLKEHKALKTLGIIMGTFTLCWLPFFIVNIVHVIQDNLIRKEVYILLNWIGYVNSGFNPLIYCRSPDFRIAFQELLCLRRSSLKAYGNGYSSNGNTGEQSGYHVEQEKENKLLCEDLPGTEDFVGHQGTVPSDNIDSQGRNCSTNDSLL

Human M3 receptor, sequence (P20309 whole entry): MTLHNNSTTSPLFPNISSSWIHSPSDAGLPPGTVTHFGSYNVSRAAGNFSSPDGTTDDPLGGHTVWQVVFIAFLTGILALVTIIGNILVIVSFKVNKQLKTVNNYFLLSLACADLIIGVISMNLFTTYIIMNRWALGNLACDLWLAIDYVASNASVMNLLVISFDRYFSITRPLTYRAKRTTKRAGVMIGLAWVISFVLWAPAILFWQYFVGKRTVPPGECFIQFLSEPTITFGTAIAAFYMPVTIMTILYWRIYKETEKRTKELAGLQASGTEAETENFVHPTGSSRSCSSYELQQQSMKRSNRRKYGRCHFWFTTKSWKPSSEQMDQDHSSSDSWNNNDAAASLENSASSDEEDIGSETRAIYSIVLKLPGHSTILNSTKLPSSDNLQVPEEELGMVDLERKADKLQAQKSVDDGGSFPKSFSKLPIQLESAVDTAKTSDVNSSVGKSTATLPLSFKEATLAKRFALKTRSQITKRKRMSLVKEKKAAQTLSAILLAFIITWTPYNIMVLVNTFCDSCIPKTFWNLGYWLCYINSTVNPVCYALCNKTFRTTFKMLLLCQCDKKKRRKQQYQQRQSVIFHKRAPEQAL

| Structure (SMILES) | IC50 (Human M3 receptor) [nM] | IC50 (Human β2 adrenoceptor) [nM] |
| --- | --- | --- |
| O=C(NCCCOc1cccc([C@](O)(C(=O)OCC2CCN(Cc3ccccc3)CC2)c2ccccc2)c1)c1ccc(CNC[C@H](O)c2ccc(O)c3[nH]c(=O)ccc23)cc1Cl [Compound 32H, (S)-(1-benzylpiperidin-4-yl)methyl 2-(3-(3-(2-chloro-4-((((R)-2-hydroxy-2-(8-hydroxy-2-oxo-1,2-dihydroquinolin-5-yl)ethyl)amino)methyl)benzamido)propoxy)phenyl)-2-hydroxy-2-phenylacetate] | 0.3 to 3 | < 0.3 |
| CN(CCNC(=O)c1ccc(CCNC[C@H](O)c2ccc(O)c3[nH]c(=O)ccc23)cc1)C(=O)COc1cccc([C@](O)(C(=O)OCC2CCN(Cc3ccccc3)CC2)c2ccccc2)c1 [Compound 84, (1-benzylpiperidin-4-yl)methyl (S)-2-hydroxy-2-(3-(2-((2-(4-(2-(((R)-2-hydroxy-2-(8-hydroxy-2-oxo-1,2-dihydroquinolin-5-yl)ethyl)amino)ethyl)benzamido)ethyl)(methyl)amino)-2-oxoethoxy)phenyl)-2-phenylacetate] | > 3 | 0.3 to 3 |
| O=C(OCC1CCN(Cc2ccccc2)CC1)[C@@](O)(c1ccccc1)c1cccc(OCCCCCCNCC(O)c2ccc(O)c3[nH]c(=O)ccc23)c1 (stereo in doubt) [Compound 27, (R)-(1-benzylpiperidin-4-yl)methyl 2-hydroxy-2-(3-((6-(((R)-2-hydroxy-2-(8-hydroxy-2-oxo-1,2-dihydroquinolin-5-yl)ethyl)amino)hexyl)oxy)phenyl)-2-phenylacetate] | > 3 | 0.3 to 3 |
| CN1CCC(COC(=O)[C@@](O)(c2ccccc2)c2cccc(OCCCCCNC[C@H](O)c3ccc(O)c4[nH]c(=O)ccc34)c2)CC1 [Compound 24, (R)-(1-methylpiperidin-4-yl)methyl 2-hydroxy-2-(3-((5-(((R)-2-hydroxy-2-(8-hydroxy-2-oxo-1,2-dihydroquinolin-5-yl)ethyl)amino)pentyl)oxy)phenyl)-2-phenylacetate] | > 3 | < 0.3 |
| O=C(NCCN(Cc1ccccc1)C(=O)COc1cccc([C@](O)(C(=O)OCC2CCN(Cc3ccccc3)CC2)c2ccccc2)c1)c1ccc(CCNC[C@H](O)c2ccc(O)c3[nH]c(=O)ccc23)cc1 [Compound 87, (1-benzylpiperidin-4-yl)methyl (S)-2-(3-(2-(benzyl(2-(4-(2-(((R)-2-hydroxy-2-(8-hydroxy-2-oxo-1,2-dihydroquinolin-5-yl)ethyl)amino)ethyl)benzamido)ethyl)amino)-2-oxoethoxy)phenyl)-2-hydroxy-2-phenylacetate] | 0.3 to 3 | 0.3 to 3 |
| O=C(COc1cccc([C@](O)(C(=O)OCC2CCN(Cc3ccccc3)CC2)c2ccccc2)c1)N1CCOC2(CCN(C(=O)c3ccc(CCNC[C@H](O)c4ccc(O)c5[nH]c(=O)ccc45)cc3)CC2)C1 [Compound 100, (1-benzylpiperidin-4-yl)methyl (S)-2-hydroxy-2-(3-(2-(9-(4-(2-(((R)-2-hydroxy-2-(8-hydroxy-2-oxo-1,2-dihydroquinolin-5-yl)ethyl)amino)ethyl)benzoyl)-1-oxa-4,9-diazaspiro[5.5]undecan-4-yl)-2-oxoethoxy)phenyl)-2-phenylacetate] | < 0.3 | 0.3 to 3 |
| O=C(COc1cccc([C@](O)(C(=O)OCC2CCN(Cc3ccccc3)CC2)c2ccccc2)c1)N1CCN(C(=O)c2ccc(CCNC[C@H](O)c3ccc(O)c4[nH]c(=O)ccc34)cc2)CC1 [Compound 86, (1-benzylpiperidin-4-yl)methyl (S)-2-hydroxy-2-(3-(2-(4-(4-(2-(((R)-2-hydroxy-2-(8-hydroxy-2-oxo-1,2-dihydroquinolin-5-yl)ethyl)amino)ethyl)benzoyl)piperazin-1-yl)-2-oxoethoxy)phenyl)-2-phenylacetate] | 0.3 to 3 | < 0.3 |
| O=C(NCCOc1cccc([C@@](O)(C(=O)OCC2CCN(Cc3ccccc3)CC2)c2ccccc2)c1)c1ccc(CCNC[C@H](O)c2ccc(O)c3[nH]c(=O)ccc23)cc1 [Compound 34, (R)-(1-benzylpiperidin-4-yl)methyl 2-hydroxy-2-(3-(2-(4-(2-(((R)-2-hydroxy-2-(8-hydroxy-2-oxo-1,2-dihydroquinolin-5-yl)ethyl)amino)ethyl)benzamido)ethoxy)phenyl)-2-phenylacetate] | > 3 | 0.3 to 3 |
| O=C(Nc1cccc(C(O)(C(=O)OCC2CCN(Cc3ccccc3)CC2)c2ccccc2)c1)OCCCCCNC[C@H](O)c1ccc(O)c2[nH]c(=O)ccc12 (stereo partly drawn) [Compound 54, (1-benzylpiperidin-4-yl)methyl 2-hydroxy-2-(3-((((5-(((R)-2-hydroxy-2-(8-hydroxy-2-oxo-1,2-dihydroquinolin-5-yl)ethyl)amino)pentyl)oxy)carbonyl)amino)-phenyl)-2-phenylacetate bis hydrochloride] | 0.3 to 3 | < 0.3 |
| O=C(COc1cccc([C@](O)(C(=O)OCC2CCN(Cc3ccccc3)CC2)c2ccccc2)c1)N[C@H]1C[C@H](NC(=O)c2ccc(CNC[C@H](O)c3ccc(O)c4[nH]c(=O)ccc34)c(F)c2F)C1 [Compound 134, (1-benzylpiperidin-4-yl)methyl (S)-2-(3-(2-(((1R,3S)-3-(2,3-difluoro-4-((((R)-2-hydroxy-2-(8-hydroxy-2-oxo-1,2-dihydroquinolin-5-yl)ethyl)amino)methyl)benzamido)cyclobutyl)amino)-2-oxoethoxy)phenyl)-2-hydroxy-2-phenylacetate] | 0.3 to 3 | < 0.3 |
| O=C(COc1cccc([C@](O)(C(=O)OCC2CCN(Cc3ccccc3)CC2)c2ccccc2)c1)NCCNC(=O)c1ccc(CNC[C@H](O)c2ccc(O)c3[nH]c(=O)ccc23)cc1 [Compound 57, (1-Benzylpiperidin-4-yl)methyl (S)-2-hydroxy-2-(3-(2-((2-(4-((((R)-2-hydroxy-2-(8-hydroxy-2-oxo-1,2-dihydroquinolin-5-yl)ethyl)amino)methyl)benzamido)ethyl)amino)-2-oxoethoxy)phenyl)-2-phenylacetate] | 0.3 to 3 | 0.3 to 3 |
| O=C(c1ccc(CCNC[C@H](O)c2ccc(O)c3[nH]c(=O)ccc23)cc1)N1CCC(C(=O)N2CCC(COc3cccc([C@](O)(C(=O)OCC4CCN(Cc5ccccc5)CC4)c4ccccc4)c3)CC2)CC1 [Compound 151, (1-Benzylpiperidin-4-yl)methyl (S)-2-hydroxy-2-(3-((1-(1-(4-(2-(((R)-2-hydroxy-2-(8-hydroxy-2-oxo-1,2-dihydroquinolin-5-yl)ethyl)amino)ethyl)benzoyl)piperidine-4-carbonyl)piperidin-4-yl)methoxy)phenyl)-2-phenylacetate] | < 0.3 | < 0.3 |
| O=C(COc1cccc([C@](O)(C(=O)OCC2CCN(Cc3ccccc3)CC2)c2ccccc2)c1)NC1CN(C(=O)c2ccc(CCNC[C@H](O)c3ccc(O)c4[nH]c(=O)ccc34)cc2)C1 [Compound 101, (1-benzylpiperidin-4-yl)methyl (S)-2-hydroxy-2-(3-(2-((1-(4-(2-(((R)-2-hydroxy-2-(8-hydroxy-2-oxo-1,2-dihydroquinolin-5-yl)ethyl)amino)ethyl)benzoyl)azetidin-3-yl)amino)-2-oxoethoxy)phenyl)-2-phenylacetate] | < 0.3 | < 0.3 |
